Assay results taken from patent US8372441B2, “Materials and methods for preparation of alkaline earth ferrates from alkaline earth oxides, peroxides, and nitrates” (Biolife, LLC, priority 2007, dated 2013).

Assays:
[1] = solubility in water or saline solution; format: physicochemical; conditions: for strontium ferrate water or saline solution
mammalian blood = conditions: dry powder on blood; cited from earlier work
[2] = cited from earlier work

Compound | solubility in water [1] | hemostasis (background) (mammalian blood) | solubility in water (background) [2]
[O]=[Fe][O][Fe]=[O] [Ferric oxide] | insoluble | – | –
[Fe+4].[O-2].[O-2].[O-2].[O-2].[Sr+2].[Sr+2] [Strontium ferrate, strontium ferrate] | very insoluble | – | –
[O-2].[Sr+2] [Strontium oxide] | – | some hemostasis | –
OO.[Zn] [Zinc peroxide (ZnO2), Zinc peroxide] | – | some hemostatic activity | –
[Ba+2].[O]=[Fe](=[O])([O-])[O-] [barium ferrate (BaFeO4), barium ferrate] | – | – | practically insoluble
strontium ferrate [strontium ferrate (SrFeO4)] | – | – | practically insoluble
